Assay results reported in US6365759B1, “Intermediate compounds for preparing macrocylcic analogs” (Eisai Co., Ltd., priority 1998, dated 2002).
Read-outs that look alike come from different tables or passages of the source.

Assays:
[1] = tested on: U937 human histiocytic lymphoma cells; test: U937 Mitotic Block Reversibility Assay; assay type: cell-based
[2] = tested on: DLD-1 human colon cancer cells; test: in vitro cell growth inhibition assay using DLD-1 cells; assay type: cell-based
[3] = tested on: LOX human melanoma tumor xenograft; test: LOX melanoma xenograft growth inhibition assay; assay type: in vivo, mouse; conditions: FIG. 3
Protocol: FIG. 3 is a graph showing the average tumor volume in microliters as a function of time (days) in a LOX melanoma xenograft growth inhibition assay. […] Paclitaxel and a vehicle control were used.
Many of the individually disclosed drugs were tested for in vitro and in vivo activity (see Table 1, below). Screening methods included a standard in vitro cell growth inhibition assay using DLD-1 human colon cancer cells (ATCC accession number CCL 221) in a 96-well microtiter plate format (Finlay, G. J. et al Analytical Biochemistry 139:272-277, 1984), a U937 (ATCC accession number CRL 1593) mitotic block reversibility assay (described below), and in some cases, a LOX human melanoma tumor xenograft in vivo growth inhibition assay (see Table 1). Chemical stability to esterase degradation was also examined.

Row | SMILES | Complete Mitotic Block 0 hour [1] | Complete Mitotic Block 10 hour [1] | Reversibility Ratio [1] | minimum concentration required for complete mitotic block at 0 hour [1] | minimum concentration required for complete mitotic block at 10 hour [1] | reversibility ratio [1] | viability of cells at 5 days [1] | IC50 ([2]; Homo sapiens, DLD-1, read-out: DLD-1 mean IC50) | antitumor activity (average tumor volume over time) [3] | IC50 ([2]; read-out: DLD-1 mean IC50)
1 | C=C1CC2CCC34CC5OC6C(O3)C3OC(CCC3O[C@H]6C5O4)CC(=O)CC3C(CC4OC(CCC1O2)CC(C)C4=C)OC(CC(O)CN)C3OC (some centres unmarked) [Compound B1939] | 12 nM | 12 nM | 1.0 | 10 nM | 10 nM | 1 | drops to very low levels | 19.3 nM | antitumor activity | 
2 | C=C1CC2CCC34CC5OC6C(OC7CCC(CC(=O)CC8C(CC9OC(CCC1O2)CC(C)C9=C)OC(CC(O)CN1CC[C@@H](O)C1)C8OC)OC7C6O3)C5O4 (some centres unmarked) [ER803836] | 3 nM | 10 nM | 3.3 |  |  |  |  |  |  | 1.97 nM
3 | C=C1CC2CCC34CC5OC6C(OC7CCC(CC(=O)CC8C(CC9OC(CCC1O2)CC(C)C9=C)OC(CC(O)CN1CCCCCC1)C8OC)OC7C6O3)C5O4 (centres unmarked) [ER803843] | 1 nM | 10 nM | 10.0 |  |  |  |  |  |  | 0.49 nM
4 | C=C1CC2CCC34CC5OC6C(OC7CCC(CC(=O)CC8C(CC9OC(CCC1O2)CC(C)C9=C)OC(CC(O)CNCc1ccc(OC)cc1)C8OC)OC7C6O3)C5O4 (centres unmarked) [ER803845] | 3 nM | 10 nM | 3.3 |  |  |  |  |  |  | 1.5 nM
5 | C=C1CC2CCC34CC5OC6C(OC7CCC(CC(=O)CC8C(CC9OC(CCC1O2)CC(C)C9=C)OC(CC(O)CNCCc1ccccc1)C8OC)OC7C6O3)C5O4 (centres unmarked) [ER803846] | 1 nM | 10 nM | 10.0 |  |  |  |  |  |  | 1.16 nM
6 | C=C1CC2CCC34CC5OC6C(OC7CCC(CC(=O)CC8C(CC9OC(CCC1O2)CC(C)C9=C)OC(CC(O)CN1CCC[C@H]1CO)C8OC)OC7C6O3)C5O4 (some centres unmarked) [ER803851] | 3 nM | 3 nM | 1.0 |  |  |  |  |  |  | 3.33 nM
7 | C=C1CC2CCC34CC5OC6C(OC7CCC(CC(=O)CC8C(CC9OC(CCC1O2)CC(C)C9=C)OC(CC(O)CN1CCC[C@@H]1CO)C8OC)OC7C6O3)C5O4 (some centres unmarked) [ER803852] | 3 nM | 10 nM | 3.3 |  |  |  |  |  |  | 3.03 nM
8 | C=C1CC2CCC34CC5OC6C(OC7CCC(CC(=O)CC8C(CC9OC(CCC1O2)CC(C)C9=C)OC(CC(O)CN1CCOCC1)C8OC)OC7C6O3)C5O4 (centres unmarked) [ER803868] | 3 nM | 10 nM | 3.3 |  |  |  |  |  |  | 0.43 nM
9 | C=C1CC2CCC34CC5OC6C(OC7CCC(CC(=O)CC8C(CC9OC(CCC1O2)CC(C)C9=C)OC(CC(O)CNCC)C8OC)OC7C6O3)C5O4 (centres unmarked) [ER803869] | 3 nM | 3 nM | 1.0 |  |  |  |  |  |  | 4.13 nM
10 | C=C1CC2CCC34CC5OC6C(OC7CCC(CC(=O)CC8C(CC9OC(CCC1O2)CC(C)C9=C)OC(CC(O)Cn1ccnc1)C8OC)OC7C6O3)C5O4 (centres unmarked) [ER803870] | 3 nM | 30 nM | 10.0 |  |  |  |  |  |  | 1.27 nM
11 | C=C1CC2CCC34CC5OC6C(OC7CCC(CC(=O)CC8C(CC9OC(CCC1O2)CC(C)C9=C)OC(CC(O)CN(CC)CC)C8OC)OC7C6O3)C5O4 (centres unmarked) [ER803883] | 1 nM | 10 nM | 10.0 |  |  |  |  |  |  | 1.02 nM
12 | C=C1CC2CCC34CC5OC6C(OC7CCC(CC(=O)CC8C(CC9OC(CCC1O2)CC(C)C9=C)OC(CC(O)CNCc1ccc(Cl)cc1)C8OC)OC7C6O3)C5O4 (centres unmarked) [ER803884] | 1 nM | 10 nM | 10.0 |  |  |  |  |  |  | 0.59 nM
